The target in the first experiment is T1, c-Abl kinase domain (Mus musculus, UniProt P00520).
T1 sequence (P00520 242-493 limits assumed): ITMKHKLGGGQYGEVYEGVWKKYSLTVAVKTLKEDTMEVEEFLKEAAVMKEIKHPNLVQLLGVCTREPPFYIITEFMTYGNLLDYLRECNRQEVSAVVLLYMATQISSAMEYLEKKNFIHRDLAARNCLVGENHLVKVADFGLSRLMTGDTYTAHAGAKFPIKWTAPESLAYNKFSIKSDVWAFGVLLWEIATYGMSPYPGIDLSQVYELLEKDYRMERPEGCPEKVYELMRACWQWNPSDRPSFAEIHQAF
As to the kind of experiment: pTyr-Var library bacterial peptide display kinase screen (enrichment scores). In kind it is biochemical. The following applies: fig5-data2, sheet "Abl"; Screen for the variant/reference peptide pair, pTyr-Var library.
Take NFGTNYRVGSS [CPO_Y278_K273N_YF]: the Screen is 0.7292.
Regarding CGTPEYRAPEI [PRKACA_Y205_L206R], the Screen is 0.964.
With NDPMEYAKQHG [ASS1_Y163_L160P], the Screen was 0.6452.
In turn, ECIEFYELDKK [PMM2_Y145_R141C] had a Screen of 0.4752.
Still for that read-out and setting: in the case of QDEPTYARSSK [PEAK1_Y616_H611Q] it was 1.067; in that of FSGKAYADEEQ [CRIM1_Y826_R831Q], 0.3767; in that of QHVPDYRQNGF [PCDHGB6_Y889_V893G_YF], -1.654.
On the same count and under the same terms, under DTLASYLDKVR [KRT12_Y139_R135T] stands -1.083; under VFAANYFKLLG [ROR2_Y645_D644N_YF], 0.3272; under LTQRTYMLENA [GPAA1_Y49_S51L], -1.886.
Same read-out and setting: under CGTPDYIAREI [PRKCG_Y521_P524R] stands 0.3032; under DQVEQYNKELE [LMNA_Y259_K260N], -0.1463.
LRAGVYREKDQ [DNM2_Y626_P627R]: the Screen is on record as -0.9512.

Still in this experiment, the particulars now being: sheet "Abl"; effect of variant peptide relative to its reference peptide in pTyr-Var library screen (enrichment).
Sequence EKGEEYGGGGG [TUBA1A_Y451_E447K] yielded a Screen of 1.685.
QLLIEYPPEEV [ZZZ3_Y670_K669E] showed a Screen of 2.193.
Same read-out and setting: under KDPPDYKFQPR [SOX9_Y172_H169P_YF] stands -0.03774; under SGLDSYVRSLP [TRAPPC1_Y133_R129G], -0.62; under SVVVPYEPPEL [TP53_Y220_V225L], 0.6095.

Another experiment deals with c-Src kinase domain (Homo sapiens, UniProt P12931). The experiment is described as above. In kind it is biochemical. The following applies: pTyr-Var library screen with c-Src; sheet "Src substrates": annotated Src substrate sites, 11-residue peptide SITE_+/-5_AA; mean.
On to YDDGKYVYVVT, for which the “Enrichment score (mean)” value is listed as 1.305.

Staying with this experiment, now noted: sheet "Src"; effect of the variant peptide relative to its reference peptide in the pTyr-Var library screen.
For FAFQLYDLDPD [CHP2_Y123_R127P_YF], the Screen came to 0.6897.
On the same count and under the same terms, under IGEVVYQRAAM [GRIN2A_Y502_V506A] stands -0.3302; under NACGLYHTMNG [GATA5_Y216_K218T], 2.558.
In the case of PAVGIYNGNIN [CDCP1_Y707_D709G], the Screen came out at 0.5447.
RDSQIYAVDFE [MRPS34_Y34_L33I_YF] showed a Screen of 2.537.
Same read-out and setting: under EGWQVYRLGTR [MISP_Y95_A99T] stands -0.2875; under RTVDVYFGPQM [KIRREL3_Y332_R336Q], 1.347; under VDGFVYKLHPS [GCK_Y413_S411F], -2.399.
ARSHIYTLASC [MEFV_Y741_F743L]: the Screen worked out at 0.6764.
Turning to HISGVYKLPPD [ANGPTL7_Y145_R140H], the Screen was determined as 1.474.
Sequence LITTLYIDFLG [KCNQ1_Y267_G269D] registered a Screen of -1.548.
On the same count and under the same terms, in the case of RGDTVYTVNCM [KBTBD13_Y404_R408C] it was -0.9987; in that of RNDRVYQPLRD [CD3D_Y149_Q147R], -1.537.
Sequence AVRFIYTIDGS [DCX_Y105_G100A_YF] showed a Screen of 0.6298.
The sequence GKSFIYAAFHA [KCNT1_Y563_T562I] registered a Screen of -0.6339.
For the sequence AHAGEYGAVAL [HBA1_Y25_E28V], the Screen is reported as 2.935.
Turning to CVRTIYTIDGS [DCLK2_Y124_G119C], the Screen amounted to 0.3247.
Sequence RPIEVYLCPEE [E2F3_Y349_G344R] gave a Screen of 1.834.

Still in this experiment, the particulars now being: sheet "Src"; variant peptide versus its reference peptide in the pTyr-Var library screen.
As for PFRFIYMAVQH [PTPN11_Y515_Q510P_YF], the Screen is recorded as -0.7023.
With STEAIYWRFSK [SH3PXD2B_Y42_R43W_YF], the Screen came out at 2.709.
Same read-out and setting: in the case of ATRDVYNPFET [SCAMP3_Y41_L38R] it was -1.143; in that of PRRRFYVVACD [RNASE3_Y134_G130R], -1.377; in that of ELTSVYGSRAR [SENP1_Y349_D350G], 0.9781.
Consider QAEELYFGKMG [YES1_Y159_W158L], for which the Screen is reported as 2.237.
Regarding PLDGEYLTLQI [TP53_Y327_F328L], the Screen is given as -1.75.
In turn, QITQVYGFFHE [PPP2CA_Y127_D131H_YF] had a Screen of 0.1908.
Regarding MSRDVYSIDFF [NTRK2_Y702_T704I_YF], the Screen was 1.303.

The values are drawn from publication PMC10065799, “High-throughput profiling of sequence recognition by tyrosine kinases and SH2 domains using bacterial peptide display” (eLife, 2023).
